Measurements: paper PMC7004148, “Flexible Fragment Growing Boosts Potency of Quorum‐Sensing Inhibitors against Pseudomonas aeruginosa Virulence” (Chemmedchem, 2019)
Where “and” joins values, the source holds several entries; their conditions need not be identical. Equal values may be shown once. Read-outs that look alike come from different tables or passages of the source.

Columns and labels:
PqsR [1] = molecular target: T1, PqsR (Pseudomonas aeruginosa, UniProt Q9I4X0); test: biochemical; format: binding; parameters: H6SUMOPqsRc87 and T265A mutant H6SUMOPqsRc87 for ITC studies was expressed; made in house; host or cells: E. coli BL21 (λDE3)
Experimental: 3.2 Expression and Purification of H6SUMOPqsRc87
(§1) H6SUMOPqsRc87 and T265A mutant H6SUMOPqsRc87 for ITC studies was expressed and purified as previously reported.[8,9] Briefly, E. coli BL21 (λDE3) transfected with the pSUMO3_ck4_pqsRC87 or pSUMO3_ck4_T265ApqsRC87 plasmid[8] were grown in LB medium containing 50 µg mL-1 kanamycin at 37 °C to an OD600 of approximately 0.8 and expression was induced with 0.2 mM IPTG for 16 h at 16 °C. The protein was purified using nickel affinity chromatography in a one step gradient.
ITC titrations were performed as described before.[8,9] Briefly, ITC experiments were carried out using an ITC200 instrument (Microcal Inc., GE Healthcare). The titrations were performed on 50-150 µM H6SUMO-PqsRC87 in the 200 µL sample cell using 19 injections of 2 µL ligand solution (0.5-1.5 mM) every 180 s. The data were collected and the area under each peak was integrated. To correct for heats of dilution and mixing the final base line consisting of small peaks of the same size at the end of the titration were substracted.
Target sequence in this assay (Q9I4X0 87-332): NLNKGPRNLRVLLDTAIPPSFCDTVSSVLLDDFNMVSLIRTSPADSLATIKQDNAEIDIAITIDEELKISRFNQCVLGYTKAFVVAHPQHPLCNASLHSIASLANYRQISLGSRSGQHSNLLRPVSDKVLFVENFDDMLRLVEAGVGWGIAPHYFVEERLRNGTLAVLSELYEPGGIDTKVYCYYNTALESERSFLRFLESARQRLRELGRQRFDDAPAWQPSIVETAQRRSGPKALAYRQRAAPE

[2] = system: pyocyanin in P. aeruginosa PA14; test: Pyocyanin assay in P. aeruginosa PA14 cultures; format: cell-based, Pseudomonas aeruginosa PA14; settings: for IC50: mean of at least two independent experiments, SD<25 %
Experimental: (§2) 6. Effects in P. aeruginosa
(§3) Pyocyanin Assay. The inhibition of virulence factor pyocyanin was measured as described previously[26] following a procedure established by Essar et al.[28] Briefly, Pseudomonas aeruginosa PA14 cultures were grown in the presence of inhibitors or DMSO as control for 16 h. Pyocyanin was determined photometrically after extraction of the cultures with chloroform and re-extraction with 0.2 M HCl. Protonated red colored pyocyanin was determined by measuring OD520 and normalizing to OD600. None of the compound impaired bacterial viability as observed by the OD600 parameter. Inhibition values were expressed in relation to the DMSO control. Each value is the mean of at least two independent experiments with n=3.
(§4) The given IC50 values represent the mean of at least two experiments using at least five different concentrations. Curve fitting was performed using the log (inhibitor) vs response model with constrained bottom = 0 and top =100 (GraphPad Prism 5.0).
(§5) Figure S4: Inhibition of virulence factor pyocyanin was evaluated in the clinical isolate PA14.
(§6) Representative dose-response curves a) compound 11 b) compound 20. Black dotes (•) represent the reduction of pyocyanin in presents of a given compound concentration relative to DMSO control (= 0 %). The continuous black line is the none -linear regression analysis to […]
(1 picture or pasted object on this page, not shown here)

PqsR [3] = system: PqsR; parameters: method as in PMID 24338917; settings: PQS-mediated effect in E. coli-based assay; read-out: EC 50(E.coli); cited from earlier work
[4] = molecular target: PqsR ligand binding domain; parameters: method as in PMID 23713667; settings: native agonist PQS towards the ligand binding domain; cited from earlier work
PqsR [5] = molecular target: T1, PqsR; test: PQS-mediated effect in P. aeruginosa; format: cell-based; parameters: expressed in transfected cells; host or cells: E. coli DH5α carrying plasmid pEAL08-2
Target sequence in this assay (Q9I4X0 whole entry): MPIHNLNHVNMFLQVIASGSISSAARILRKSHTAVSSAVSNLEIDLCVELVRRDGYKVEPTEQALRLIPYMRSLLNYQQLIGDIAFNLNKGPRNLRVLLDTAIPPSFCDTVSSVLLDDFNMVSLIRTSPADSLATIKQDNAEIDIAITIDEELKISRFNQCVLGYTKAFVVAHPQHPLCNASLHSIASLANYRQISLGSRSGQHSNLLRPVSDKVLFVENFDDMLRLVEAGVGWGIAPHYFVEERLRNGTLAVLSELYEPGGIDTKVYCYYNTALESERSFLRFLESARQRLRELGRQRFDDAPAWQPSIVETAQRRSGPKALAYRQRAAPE

PqsR [6] = molecular target: T1, PqsR; test: PqsR β-galactosidase reporter gene assay in E. coli; format: cell-based; parameters: expressed in transfected cells; host or cells: E. coli DH5α carrying plasmid pEAL08-2; settings: for IC50 (inverse agonistic/antagonistic activity): n.i.=no inhibition (activity≤15 %)
Experimental: 5. E. coli reporter-gene assay & dose-response curves
PqsR Reporter gene assay in E. coli. The inverse agonistic/antagonistic activity of potential PqsR ligands was evaluated in a β-galactosidase reporter gene assay in E. coli as previously described.[26] In short, test compounds were co-incubated with E. coli DH5α cells containing the plasmid pEAL08-2,[27] which expresses PqsR and the β-galactosidase LacZ under the control of the pqsA promoter. The inverse agonistic/antagonistic activity of compounds was measured in the presence of 50 nM PQS. After incubation, galactosidase activity was quantified photometrically and expressed as ratio of controls. The given IC50 values represent the mean of at least two independent experiments using at least eight different concentrations of test compound with n = 4. Non-linear regression analysis was done using the log (inhibitor) vs response model included in the GrapPad Prism 5.0 software package.
Target sequence in this assay (Q9I4X0 whole entry): as above

PqsRT265A = molecular target: T2, PqsRT265A (Pseudomonas aeruginosa, UniProt Q9I4X0, T265A); test: ITC thermodynamic signature, PqsRwt versus PqsRT265A mutant; format: binding; settings: comparison of thermodynamic signatures (SI, Figure S3)
T2 construct: H6SUMOPqsRc87 and T265A mutant H6SUMOPqsRc87 for ITC studies was expressed; made in house; host or cells: E. coli BL21 (λDE3)
Experimental: 3. Isothermal Titration Calorimetry
3.1 Site-directed Mutagenesis: PqsRT265A mutant
The plasmid pSUMO3_ck4_T265ApqsRC87 was generated as previously described[8] using QuikChange Site-Directed Mutagenesis Kit (Stratagene) following the manufacturer’s instructions. The following primer were used: forward 5'
3. PCR condition to amplify the T265A gene: 16 cycles with 35s denaturation at 95 °C, 60 s annealing at 55 ° C, and 13 min extension. The generated plasmid was transformed via electroporation into E. coli BL21 3.2 Expression and Purification of H6SUMOPqsRc87
as §1
ITC titrations were performed as described before.[8,9] Briefly, ITC experiments were carried out using an ITC200 instrument (Microcal Inc., GE Healthcare). The titrations were performed on 50-150 µM H6SUMO-PqsRC87 in the 200 µL sample cell using 19 injections of 2 µL ligand solution (0.5-1.5 mM) every 180 s. […]

[7] = system: HQNO levels in PA14pqsH strain; test: HQNO quantification in PA14pqsH cultures (UHPLC-MS/MS); format: cell-based; settings: Pseudomonas aeruginosa, read-out: HQNO inhibition
Experimental: (§7) determine IC50 values using a log (inhibitor) vs. response model with constrains (bottom = 0; top =100) (Graph Pad Prism 5.04).
(§8) HHQ and HQNO Quantification. Extracellular HHQ and HQNO were measured as previously reported[29] following a modified procedure of Lépine et al.:[30] Briefly, P. aeruginosa PA14pqsH cultures were grown in the presence of DMSO as a control or DMSO solutions of inhibitors for 17 h. HHQ and HQNO were quantified from ethyl acetate extracts using 5,6,7,8-tetradeutero-2-heptyl-4(1H)-quinolone (HHQ-d4) as internal standard (IS).
(§9) UHPLC-MS/MS analysis was performed as described in detail by Storz et al.[31] The following ions were monitored (mother ion [m/z], product ion [m/z], scan time [s], scan width [m/z], […]
(§10) quantification was performed using Xcalibur software with the use of a calibration curve relative to the area of the IS. Given data represent the mean of at least two independent experiments with n=3 and were expressed as percentage inhibition relative to DMSO control.

[8] = system: HHQ levels in PA14pqsH strain; test: HHQ quantification in PA14pqsH cultures (UHPLC-MS/MS); format: cell-based; settings: Pseudomonas aeruginosa, read-out: HHQ inhibition
Experimental: as §7, §8, §9, §10

[9] = system: Pseudomonas aeruginosa PA14; format: cell-based; settings: PA14 cultures grown 16 h in the presence of inhibitors
Experimental: as §2, §3, §4, §5, §6

[10] = Pseudomonas aeruginosa, PA14, read-out: Pyocyanin IC50, PA14 cultures, photometric quantification
[11] = Pseudomonas aeruginosa, PA14, read-out: Pyocyanin inhibition
[12] = Table 1, EE=−ΔH/(heavy atom count)
[13] = Table 1, LE=−ΔG/(heavy atom count)

T2 sequence (Q9I4X0 87-332 T265A): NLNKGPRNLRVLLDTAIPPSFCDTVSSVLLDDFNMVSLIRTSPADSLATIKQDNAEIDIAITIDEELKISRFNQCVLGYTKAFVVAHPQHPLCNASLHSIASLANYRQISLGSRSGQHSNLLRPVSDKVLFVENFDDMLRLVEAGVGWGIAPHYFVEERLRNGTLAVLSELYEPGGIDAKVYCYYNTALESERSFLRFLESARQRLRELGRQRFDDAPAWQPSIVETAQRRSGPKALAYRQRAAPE

In the case of `Nc1cc(NCCc2ccc(F)cc2)cc(C(F)(F)F)n1` [Compound 19], the Kd (PqsR [1]) is reported as 4.7 ± 2.3 µM, the “-TΔS” value (PqsR [1]; Table S1) is reported as 6.1 ± 0.7 kcal/mol and the ΔG (PqsR [1]; Table S1) is reported as -7.4 ± 0.3 kcal/mol. The EE (PqsR [1]; Table S1, enthalpic efficiency) was 0.64 kcal/mol and the LE (PqsR [1]; Table S1, ligand efficiency) was 0.35 kcal/mol.

For `Nc1ccc(Br)cn1` [Compound 4], the Kd (PqsR [1]) was greater than 50 µM.

`O=C(CSc1nc2ccc([N+](=O)[O-])cc2[nH]1)Nc1ccc(Oc2ccccc2)cc1` [Compound R1, reference compound] gave an IC50 [2, 10] of 0.12 µM.

In the case of `CCCCCCCc1[nH]c2ccccc2c(=O)c1O` [PQS, 2‐heptyl‐3‐hydroxy‐4(1H)‐quinolone], the EC50 (PqsR [3]) is given as 0.0063 µM, the Kd [4] is given as 1.2 ± 0.3 µM and the EC50 (PqsR [5]) is given as 0.024 µM.

For `Nc1cc(NC(=O)c2ccc(F)cc2)cc(C(F)(F)F)n1` [Compound 16], the “Inverse agonistic/antagonistic activity at a given concentration” value (PqsR [6]; @ 100 μM, in the presence of 50 nM PQS) was 35±5 % @ 100 μM.

With `Nc1cc(NCCOc2ccc(F)cc2)cc(C(F)(F)F)n1` [Compound 21] the “drop in antagonistic activity versus 20” value (PqsR [6]; E. coli reporter gene assay, compared with 20) was 20 fold and the inhibition at 100 µM [2, 11] was 58%.

Compound `Nc1cccc(C(F)(F)F)n1` [Compound 7] has a Kd (PqsR [1]) of 3.1 ± 0.5 µM, an EE (PqsR [1]; [12]) of 1.05 kcal/mol and a ΔG (PqsR [1]; Table 1, ITC at 298 K) of -7.5 ± 0.1 kcal/mol. The ΔH (PqsR [1]; Table 1, ITC at 298 K) was -11.5 kcal/mol and -11.5 ± 0.9 kcal/mol, the “−TΔS” value (PqsR [1]; Table 1, ITC at 298 K) was 3.7 ± 1 kcal/mol and the LE (PqsR [1]; [13]) was 0.70 kcal/mol. The inhibition at 250 µM [2, 11] was 43%.

With `Nc1cc(NCc2ccc(F)cc2)cc(C(F)(F)F)n1` [Compound 11] the “Enthalpic contribution, PqsRwt versus PqsRT265A” value (PqsRT265A) was “no significant difference in the enthalpic contribution”, the inhibition at 200 µM [7] was 36 ± 3% and the inhibition at 200 µM [8] was 48 ± 4%. For the same compound, the Kd (PqsR [1]) was 0.6 ± 0.2 µM, the “-TΔS” value (PqsR [1]; Table S1) was 1.0 ± 0.8 kcal/mol and the ΔG (PqsR [1]; Table S1) was -8.4 ± 0.2 kcal/mol. It also gave a ΔH (PqsR [1]; Table S1) of -9.8 ± 0.8 kcal/mol, an EE (PqsR [1]; Table S1, enthalpic efficiency) of 0.49 kcal/mol and an LE (PqsR [1]; Table S1, ligand efficiency) of 0.42 kcal/mol. The IC50 [2, 10] was 105 ± 13 µM and the IC50 ([2]; read-out: Pyocyanin IC50, PA14 cultures, photometric quantification) was 102 µM.

In the case of `Nc1cccc(Br)n1` [Compound 3], the “IC50 (inverse agonistic/antagonistic activity)” value (PqsR [6]; in the presence of 50 nM PQS) is reported as “did not show significant antagonistic activity”, the Kd (PqsR [1]) is reported as 10 ± 1.3 µM and the EE (PqsR [1]; [12]) is reported as 1.17 kcal/mol. The ΔG (PqsR [1]; Table 1, ITC at 298 K) was -6.8 ± 0.1 kcal/mol, the ΔH (PqsR [1]; Table 1, ITC at 298 K) was -9.3 ± 0.4 kcal/mol and the “−TΔS” value (PqsR [1]; Table 1, ITC at 298 K) was 2.5 ± 0.4 kcal/mol. For the same compound, the LE (PqsR [1]; [13]) was 0.85 kcal/mol.

With `Nc1cc(NCCCc2ccc(F)cc2)cc(C(F)(F)F)n1` [Compound 20] the “Bacterial viability (OD600)” value [9] was “without affecting bacterial viability”, the “boost in potency (IC50) versus 11” value (PqsR [6]; E. coli reporter gene assay, 20 compared with 11) was 20 fold and the inhibition at 100 µM [7] was 48 ± 1%. For the same compound, the inhibition at 100 µM [8] was 56 ± 4%, the EE (PqsR [1]; Table S1, enthalpic efficiency) was 0.50 kcal/mol and the IC50 [2, 10] was 5.9 µM.

With `CC(=O)Nc1cccc(C(F)(F)F)n1` [Compound 8] the “IC50 (inverse agonistic/antagonistic activity)” value (PqsR [6]; in the presence of 50 nM PQS) was “n.i” and the “K D (ITC)” value (PqsR [1]; Table 1, ITC at 298 K, mean±SD, at least two independent experiments, >50 = no heat release detectable at solubility maximum) was “abolished the affinity”.
